Among the data in ChEMBL document CHEMBL2440075, “In vitro structure-activity relationships of aplysinopsin analogs and their in vivo evaluation in the chick anxiety-depression model” (Bioorg Med Chem, 2013) are Ki values, retold here.

Structures are written as SMILES. Some results are limits rather than exact numbers.

Test [1] addresses 5-hydroxytryptamine receptor 2B (Homo sapiens, UniProt P41595). The experiment in a line: Displacement of [3H]LSD from human recombinant 5HT2B receptor stably expressed in HEK cells. It counts as cell-based, HEK293.
Test [2] addresses T1, 5-hydroxytryptamine receptor 2C (Homo sapiens, UniProt P28335).
T1 sequence (P28335 whole entry): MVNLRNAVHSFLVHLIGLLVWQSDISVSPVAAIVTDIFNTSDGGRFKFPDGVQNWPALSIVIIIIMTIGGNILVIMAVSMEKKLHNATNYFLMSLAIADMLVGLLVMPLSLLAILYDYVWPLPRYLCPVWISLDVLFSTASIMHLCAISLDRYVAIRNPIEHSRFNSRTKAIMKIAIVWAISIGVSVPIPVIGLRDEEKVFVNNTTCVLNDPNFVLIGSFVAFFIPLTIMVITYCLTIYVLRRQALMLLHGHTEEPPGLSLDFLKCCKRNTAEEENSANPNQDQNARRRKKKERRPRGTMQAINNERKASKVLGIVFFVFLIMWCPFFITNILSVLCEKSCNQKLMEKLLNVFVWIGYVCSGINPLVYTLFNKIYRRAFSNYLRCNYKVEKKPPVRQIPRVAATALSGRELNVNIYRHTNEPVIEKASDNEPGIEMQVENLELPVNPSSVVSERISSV
In words: Displacement of [3H]mesulergine from human recombinant 5HT2C receptor expressed in Flp-IN HEK cells. It counts as cell-based, HEK293.

Test [3] deals with 5-hydroxytryptamine receptor 2A (Rattus norvegicus, UniProt P14842). In words: Displacement of [3H]ketanserin from rat 5HT2A receptor stably expressed in 3T3 cells. It counts as cell-based.
Test [4] addresses 5-hydroxytryptamine receptor 7 (Homo sapiens, UniProt P34969). The experiment in a line: Displacement of [3H]LSD from human recombinant 5HT7 receptor stably expressed in HEK cells. In kind it is cell-based, HEK293.
Test [5] concerns the target 5-hydroxytryptamine receptor 4 (Homo sapiens, UniProt Q13639). In words: Displacement of [3H]GR113808 from human recombinant 5HT4 receptor.
Test [6] has as its target 5-hydroxytryptamine receptor 6 (Homo sapiens, UniProt P50406). In words: Displacement of [3H]LSD from human recombinant 5HT6 receptor stably expressed in HEK cells. In kind it is cell-based, HEK293.
Test [7] has as its target T2, 5-hydroxytryptamine receptor 3A (Homo sapiens, UniProt P46098).
T2 sequence (P46098 whole entry): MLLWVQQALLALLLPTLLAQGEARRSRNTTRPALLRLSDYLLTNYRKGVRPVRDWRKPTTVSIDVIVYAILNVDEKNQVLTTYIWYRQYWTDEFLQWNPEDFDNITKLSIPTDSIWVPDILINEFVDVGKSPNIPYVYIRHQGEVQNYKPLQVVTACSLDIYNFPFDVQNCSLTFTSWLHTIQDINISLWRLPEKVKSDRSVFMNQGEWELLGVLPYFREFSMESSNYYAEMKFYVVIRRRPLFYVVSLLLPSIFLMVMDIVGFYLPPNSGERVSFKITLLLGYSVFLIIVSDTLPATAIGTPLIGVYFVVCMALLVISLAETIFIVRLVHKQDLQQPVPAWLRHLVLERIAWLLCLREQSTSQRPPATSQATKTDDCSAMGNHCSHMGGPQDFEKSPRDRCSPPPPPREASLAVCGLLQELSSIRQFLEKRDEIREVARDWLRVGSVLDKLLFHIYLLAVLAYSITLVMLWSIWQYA
In words: Displacement of [3H]GR65630 from human recombinant 5HT3 receptor expressed in HEKT cells. In kind it is cell-based.

Test [8] concerns the target T3, 5-hydroxytryptamine receptor 1A (Homo sapiens, UniProt P08908).
T3 sequence (P08908 whole entry): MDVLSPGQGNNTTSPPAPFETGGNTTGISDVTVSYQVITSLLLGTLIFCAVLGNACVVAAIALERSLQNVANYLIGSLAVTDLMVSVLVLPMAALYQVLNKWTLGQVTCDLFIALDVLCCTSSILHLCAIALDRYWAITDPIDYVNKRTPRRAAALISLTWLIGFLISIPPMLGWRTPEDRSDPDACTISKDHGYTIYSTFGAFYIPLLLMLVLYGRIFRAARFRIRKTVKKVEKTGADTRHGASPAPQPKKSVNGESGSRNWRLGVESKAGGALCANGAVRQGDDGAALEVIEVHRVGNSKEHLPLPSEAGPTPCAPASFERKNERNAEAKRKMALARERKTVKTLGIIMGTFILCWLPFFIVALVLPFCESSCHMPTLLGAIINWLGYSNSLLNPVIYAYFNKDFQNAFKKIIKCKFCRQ
In words: Displacement of [3H]way100635 from human recombinant 5HT1A receptor stably expressed in CHO cells. In kind it is cell-based.

Test [9] concerns the target 5-hydroxytryptamine receptor 1E (Homo sapiens, UniProt P28566). In words: Displacement of [3H]5-HT from human recombinant 5HT1E receptor stably expressed in HEK cells. It counts as cell-based, HEK293.
In test [10] the target is 5-hydroxytryptamine receptor 5A (Homo sapiens, UniProt P47898). The experiment in a line: Displacement of [3H]LSD from human recombinant 5HT5A receptor expressed in Flp-In CHO cells. It counts as cell-based.
Test [11] concerns the target 5-hydroxytryptamine receptor 1D (Homo sapiens, UniProt P28221). The experiment in a line: Displacement of [3H]5-CT from human recombinant 5HT1D receptor expressed in HEKT cells. In kind it is cell-based.
Test [12] concerns the target 5-hydroxytryptamine receptor 1B (Homo sapiens, UniProt P28222). In words: Displacement of [3H]5-CT from human recombinant 5HT1B receptor stably expressed in HEK cells. It counts as cell-based, HEK293.

Sequence of 5-hydroxytryptamine receptor 6 (P50406 whole entry): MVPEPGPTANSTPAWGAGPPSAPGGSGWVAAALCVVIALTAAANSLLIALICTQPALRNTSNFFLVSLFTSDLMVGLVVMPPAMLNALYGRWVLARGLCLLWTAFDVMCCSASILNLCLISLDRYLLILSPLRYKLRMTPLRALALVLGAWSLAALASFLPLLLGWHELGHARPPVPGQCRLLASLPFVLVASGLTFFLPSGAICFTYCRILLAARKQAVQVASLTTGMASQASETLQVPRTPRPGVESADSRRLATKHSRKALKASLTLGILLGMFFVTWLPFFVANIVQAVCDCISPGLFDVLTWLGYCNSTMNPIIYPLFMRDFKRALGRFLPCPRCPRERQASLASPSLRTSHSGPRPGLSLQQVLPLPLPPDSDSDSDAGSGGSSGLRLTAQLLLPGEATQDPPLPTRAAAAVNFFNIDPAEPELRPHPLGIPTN
Sequence of 5-hydroxytryptamine receptor 5A (P47898 whole entry): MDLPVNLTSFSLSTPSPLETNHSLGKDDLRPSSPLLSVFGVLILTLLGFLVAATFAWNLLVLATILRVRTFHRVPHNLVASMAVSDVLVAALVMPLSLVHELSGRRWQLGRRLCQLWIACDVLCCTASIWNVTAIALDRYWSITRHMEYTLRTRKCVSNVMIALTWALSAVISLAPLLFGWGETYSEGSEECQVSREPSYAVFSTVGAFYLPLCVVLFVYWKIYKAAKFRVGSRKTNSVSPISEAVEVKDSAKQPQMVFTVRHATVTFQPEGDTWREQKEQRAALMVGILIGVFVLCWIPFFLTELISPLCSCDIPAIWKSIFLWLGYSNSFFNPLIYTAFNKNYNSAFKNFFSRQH
Sequence of 5-hydroxytryptamine receptor 1B (P28222 whole entry): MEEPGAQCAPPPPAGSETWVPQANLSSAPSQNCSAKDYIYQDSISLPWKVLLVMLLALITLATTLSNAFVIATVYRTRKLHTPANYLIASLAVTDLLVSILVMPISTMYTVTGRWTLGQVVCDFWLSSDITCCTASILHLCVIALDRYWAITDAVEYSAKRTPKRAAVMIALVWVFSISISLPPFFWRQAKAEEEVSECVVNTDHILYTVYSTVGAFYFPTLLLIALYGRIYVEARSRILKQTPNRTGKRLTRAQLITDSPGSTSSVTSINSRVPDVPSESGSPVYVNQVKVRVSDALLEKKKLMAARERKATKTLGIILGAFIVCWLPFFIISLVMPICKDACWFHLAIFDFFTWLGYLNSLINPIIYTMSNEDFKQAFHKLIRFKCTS
Sequence of 5-hydroxytryptamine receptor 2B (P41595 whole entry): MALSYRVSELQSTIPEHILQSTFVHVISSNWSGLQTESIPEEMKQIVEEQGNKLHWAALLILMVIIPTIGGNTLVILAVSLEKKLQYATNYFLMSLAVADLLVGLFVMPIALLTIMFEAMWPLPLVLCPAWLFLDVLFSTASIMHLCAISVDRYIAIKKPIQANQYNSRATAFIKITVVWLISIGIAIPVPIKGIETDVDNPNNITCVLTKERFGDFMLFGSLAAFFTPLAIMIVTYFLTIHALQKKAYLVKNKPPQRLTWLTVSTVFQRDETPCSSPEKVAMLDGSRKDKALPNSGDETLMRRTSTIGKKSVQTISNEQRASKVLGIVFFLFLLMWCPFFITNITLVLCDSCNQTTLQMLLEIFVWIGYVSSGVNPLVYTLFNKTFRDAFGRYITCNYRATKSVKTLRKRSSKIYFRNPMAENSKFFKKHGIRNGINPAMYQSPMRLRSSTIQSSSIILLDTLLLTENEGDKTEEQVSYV
Sequence of 5-hydroxytryptamine receptor 1D (P28221 whole entry): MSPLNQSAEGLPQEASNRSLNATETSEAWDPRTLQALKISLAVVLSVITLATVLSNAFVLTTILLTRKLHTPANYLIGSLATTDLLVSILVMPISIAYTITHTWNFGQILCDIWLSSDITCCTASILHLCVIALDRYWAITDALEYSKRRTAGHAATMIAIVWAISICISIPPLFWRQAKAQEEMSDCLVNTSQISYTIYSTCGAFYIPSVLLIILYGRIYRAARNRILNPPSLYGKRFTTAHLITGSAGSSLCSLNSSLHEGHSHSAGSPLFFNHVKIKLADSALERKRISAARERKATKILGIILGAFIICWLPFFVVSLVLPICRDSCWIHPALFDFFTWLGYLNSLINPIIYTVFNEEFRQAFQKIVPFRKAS
Sequence of 5-hydroxytryptamine receptor 4 (Q13639 whole entry): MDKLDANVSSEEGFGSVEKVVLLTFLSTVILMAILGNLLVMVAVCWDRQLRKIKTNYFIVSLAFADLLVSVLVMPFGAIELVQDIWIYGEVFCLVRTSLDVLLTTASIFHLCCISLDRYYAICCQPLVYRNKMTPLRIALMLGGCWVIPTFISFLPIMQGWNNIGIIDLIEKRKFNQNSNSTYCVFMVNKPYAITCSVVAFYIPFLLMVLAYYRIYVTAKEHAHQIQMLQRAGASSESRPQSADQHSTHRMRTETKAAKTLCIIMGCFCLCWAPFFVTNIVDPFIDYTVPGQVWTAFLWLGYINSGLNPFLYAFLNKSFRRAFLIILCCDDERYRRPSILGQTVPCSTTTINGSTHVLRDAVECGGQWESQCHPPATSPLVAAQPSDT
Sequence of 5-hydroxytryptamine receptor 1E (P28566 whole entry): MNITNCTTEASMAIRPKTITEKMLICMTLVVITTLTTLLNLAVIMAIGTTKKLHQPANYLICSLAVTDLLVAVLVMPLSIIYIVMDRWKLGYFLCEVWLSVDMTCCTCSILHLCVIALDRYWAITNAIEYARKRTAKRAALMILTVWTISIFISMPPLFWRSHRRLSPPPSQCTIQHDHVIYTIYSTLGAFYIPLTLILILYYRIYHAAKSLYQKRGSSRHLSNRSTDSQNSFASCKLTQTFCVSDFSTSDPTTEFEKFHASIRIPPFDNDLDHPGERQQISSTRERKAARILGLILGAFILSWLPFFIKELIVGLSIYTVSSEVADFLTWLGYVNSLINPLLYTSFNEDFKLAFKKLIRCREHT
Sequence of 5-hydroxytryptamine receptor 2A (P14842 whole entry): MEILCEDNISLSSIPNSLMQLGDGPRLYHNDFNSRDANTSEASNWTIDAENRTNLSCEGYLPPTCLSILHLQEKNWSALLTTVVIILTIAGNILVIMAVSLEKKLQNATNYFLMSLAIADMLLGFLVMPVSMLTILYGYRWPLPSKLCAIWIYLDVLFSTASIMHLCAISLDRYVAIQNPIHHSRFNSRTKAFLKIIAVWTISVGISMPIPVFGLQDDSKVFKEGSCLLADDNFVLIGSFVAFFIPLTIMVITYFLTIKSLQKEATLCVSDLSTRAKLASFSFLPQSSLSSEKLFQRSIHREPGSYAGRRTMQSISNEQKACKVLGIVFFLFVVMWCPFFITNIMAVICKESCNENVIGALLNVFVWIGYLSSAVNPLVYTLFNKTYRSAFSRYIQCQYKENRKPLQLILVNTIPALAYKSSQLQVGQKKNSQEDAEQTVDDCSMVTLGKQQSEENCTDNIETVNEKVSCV
Sequence of 5-hydroxytryptamine receptor 7 (P34969 whole entry): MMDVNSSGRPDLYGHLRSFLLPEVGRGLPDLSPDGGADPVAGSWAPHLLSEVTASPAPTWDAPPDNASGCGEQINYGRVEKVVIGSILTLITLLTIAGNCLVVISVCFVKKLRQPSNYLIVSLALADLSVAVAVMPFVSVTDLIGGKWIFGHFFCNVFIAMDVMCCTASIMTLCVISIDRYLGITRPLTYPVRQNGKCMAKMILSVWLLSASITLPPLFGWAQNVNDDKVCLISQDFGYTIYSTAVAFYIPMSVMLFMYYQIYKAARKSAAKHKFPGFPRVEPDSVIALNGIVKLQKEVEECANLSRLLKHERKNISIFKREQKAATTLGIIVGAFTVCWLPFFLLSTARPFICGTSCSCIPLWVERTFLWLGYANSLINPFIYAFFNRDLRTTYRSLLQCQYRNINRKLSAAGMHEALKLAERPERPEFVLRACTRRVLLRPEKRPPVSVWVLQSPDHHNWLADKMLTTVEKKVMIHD

Take `CN1C(=N)NC(=O)/C1=C\c1c[nH]c2cccc(Br)c12`: the Ki in test [1] was found to be 0.784 µM; in [2], 2.01 µM; in test [3], 1.41 µM; in test [4], 0.799 µM.
Regarding `CSC1=NC(=O)/C(=C/c2c[nH]c3cc(Br)ccc23)N1`, the Ki in test [1] is 1.14 µM; in test [5] it was 5.31 µM; in [2] it was 4.37 µM.
As for `CSC1=NC(=O)/C(=C/c2c[nH]c3cccc(Br)c23)N1`, the Ki is 0.78 µM in test [1], 1.06 µM in test [5] and 0.885 µM in [2].
On to `CN1C(=N)N(C)/C(=C/c2c[nH]c3ccccc23)C1=O` [APLYSINOPSIN], for which the Ki in test [1] is 4.45 µM; in [2] it was 10 µM; in test [6], 8.77 µM; in test [7], 3.03 µM; in test [8] it was more than 10 µM.
In the case of `C/N=C1\NC(=O)/C(=C/c2c[nH]c3ccccc23)N1`, the inhibition constant (Ki) in test [1] worked out at 0.287 µM; in test [5], 0.928 µM; in test [2], 0.97 µM.
Consider `C/N=C1\N(C)C(=O)/C(=C\c2c[nH]c3ccccc23)N1C` [METHYLAPLYSINOPSIN], for which the Ki in test [1] was 4.55 µM; in test [9], more than 10 µM; in [2], 10 µM; in test [3], more than 10 µM; in [6], 1.72 µM; in [7], 1.51 µM.
On to `C/N=C1\N(C)C(=O)/C(=C\c2c[nH]c3cccc(Br)c23)N1C`, for which the Ki in test [1] is 0.897 µM; in [9], more than 10 µM; in [2], 1.86 µM; in test [10] it was 5.08 µM; in test [3], more than 10 µM; in test [11], 2.55 µM. The Ki in test [6] is 7.52 µM; in test [7] it was 0.591 µM; in test [8] it was 6.93 µM.
On to `CN1C(=N)N(C)/C(=C/c2c[nH]c3cccc(Br)c23)C1=O`, for which the Ki is 0.589 µM in test [1]; more than 10 µM in test [9]; 2.76 µM in test [2]; 7.83 µM in [10]; more than 10 µM in [3]; 6.83 µM in test [11]. Moreover, the Ki was more than 10 µM in test [12], 0.656 µM in test [7] and 0.315 µM in [8].
As to `C/N=C1/N/C(=C/c2c[nH]c3cccc(Br)c23)C(=O)N1C`, the Ki in test [1] is 0.774 µM; in [2], 2.34 µM; in test [11], more than 10 µM; in [12] it was more than 10 µM.
Consider `C/N=C1\NC(=O)/C(=C/c2c[nH]c3cc(Br)ccc23)N1`, for which the Ki came to 0.154 µM in test [1], 1.16 µM in [5] and 0.98 µM in [2].
As to `CN1C(=N)N/C(=C/c2c[nH]c3ccc(Br)cc23)C1=O`, the Ki in [1] amounted to 0.094 µM; in test [2], 1.27 µM; in test [10] it was 2.33 µM; in test [3], 0.279 µM; in test [4] it was 1.22 µM; in test [8], 7.36 µM.
For the molecule `C/N=C1\NC(=O)/C(=C/c2c[nH]c3ccc(Br)cc23)N1`, the inhibition constant Ki in test [1] turned out to be 0.093 µM; in test [5], 0.226 µM; in test [2], 0.426 µM; in test [3], 0.676 µM; in [6] it was 0.86 µM.
Regarding `C/N=C1/N/C(=C/c2c[nH]c3ccc(Br)cc23)C(=O)N1C`, the Ki in test [1] was 0.52 µM; in test [2] it was 1.34 µM; in [3], more than 10 µM; in test [4] it was 3.35 µM.
`C/N=C1\NC(=O)/C(=C\c2c[nH]c3ccc(Br)cc23)N1C`: the Ki was found to be 0.883 µM in test [1]; 1.08 µM in test [2]; 6.18 µM in [7]; 4.11 µM in test [4]; 2.62 µM in [8].
As to `C/N=C1\N(C)C(=O)/C(=C\c2c[nH]c3ccc(Br)cc23)N1C`, the Ki was 1.62 µM in [1]; 2.43 µM in [2]; 9.12 µM in [10]; 2.62 µM in test [7]; 5.37 µM in [4]; 2.51 µM in [8].
Consider `CN1C(=N)N(C)/C(=C/c2c[nH]c3ccc(Br)cc23)C1=O`, for which the Ki came to 1.25 µM in test [1]; 1.27 µM in test [2]; 6.72 µM in test [10]; 1 µM in [7]; 0.527 µM in test [8].
Consider `C/N=C1\NC(=O)/C(=C/c2c[nH]c3c(Br)cccc23)N1`, for which the Ki was 0.353 µM in test [1]; 0.603 µM in [5]; 0.678 µM in test [2]; 3.32 µM in test [10]; 3.59 µM in [3].
Regarding `N=C1NC(=O)/C(=C\c2c[nH]c3c(Br)cccc23)N1`, the Ki was 0.457 µM in test [1]; more than 10 µM in test [9]; 0.841 µM in test [2]; 0.112 µM in test [10]; 2.15 µM in [3]; 1.4 µM in test [6].
On to `C/N=C1\N(C)C(=O)/C(=C\c2c[nH]c3c(Br)cccc23)N1C`, for which the Ki is 0.965 µM in [1]; 6.47 µM in test [2]; 6.91 µM in test [10]; 8.87 µM in [11]; more than 10 µM in test [12]; 7.3 µM in test [6]. The Ki in test [8] was more than 10 µM.
Regarding `CSC1=NC(=O)/C(=C/c2c[nH]c3ccc(Br)cc23)N1`, the Ki in test [1] turned out to be 1.35 µM; in [5], 3.8 µM; in [2], 2.09 µM.
For `O=C1NC(=S)N/C1=C\c1c[nH]c2cccc(Br)c12`, in that order: 0.369 µM, 2.36 µM and 1.87 µM.
For `C/N=C1\NC(=O)/C(=C\c2c[nH]c3cccc(Br)c23)N1C`, the Ki in [1] was 0.099 µM; in test [2], 0.32 µM; in [10], 1.45 µM; in test [3] it was 0.662 µM; in test [11], more than 10 µM; in [12] it was more than 10 µM. Also, the Ki in test [6] stood at 1.41 µM; in [7] it was 5.92 µM; in [8], 4.61 µM.
As for `C/N=C1\NC(=O)/C(=C\c2c[nH]c3c(Br)cccc23)N1C`, the Ki is 0.661 µM in test [1]; more than 10 µM in test [9]; 2.21 µM in test [2]; 1.42 µM in [10]; 7.97 µM in test [3]; 2.31 µM in test [6]. The Ki in test [8] is more than 10 µM.
For `CN1C(=N)N(C)/C(=C/c2c[nH]c3c(Br)cccc23)C1=O`, the Ki in [1] is 0.349 µM; in test [9], more than 10 µM; in [2] it was 3.01 µM; in test [11], more than 10 µM; in test [12] it was more than 10 µM; in test [7], 1.22 µM. Also, the Ki in test [8] is 1.81 µM.
`C/N=C1\NC(=O)/C(=C/c2c[nH]c3cccc(Br)c23)N1`: the Ki in test [1] stood at 0.05 µM; in test [5], 0.472 µM; in test [2], 0.08 µM; in test [10] it was 3.37 µM; in [3] it was 0.47 µM; in test [6], 3.73 µM.
